The numbers were not newly measured in publication PMC8235783, “Radiopharmaceutical Formulation and Preclinical Testing of ^68Ga-Labeled DOTA-MGS5 for the Regulatory Approval of a First Exploratory Clinical Trial” (Pharmaceuticals, 2021), which cites them from elsewhere.

The conditions of the series: injected dose of 150 MBq; cited from earlier work. How it is done:
When extrapolating the biodistribution data from mice to humans, a whole-body effective dose of 0.0102 mSv/MBq for men and of 0.0131 mSv/MBq for women was calculated. In Table 4, a summary of the calculated organ absorbed doses is given. At a maximum injected activity of 185 MBq, a whole-body radiation dose of 1.9–2.4 mSv can be anticipated for a PET examination with ^68Ga-DOTA-MGS5. The radiation exposure from the radioactive substance is in a similar range of a low-dose CT scan of 3–6 mSv. Due to the potential hazards of ionizing radiation, the dose of the PET/CT scan should be kept a ...

For the compound `O=C([O-])CN(CCN(CC(=O)[O-])Cc1cc(CCC(=O)NCCCCCC(=O)NCCCC[C@H](NC(=O)N[C@@H](CCC(=O)O)C(=O)O)C(=O)O)ccc1[O-])Cc1cc(CCC(=O)O)ccc1[O-].[68Ga+3].[OH3+]` [^68Ga-PSMA-11], the effective radiation dose was 2.4 mSv.
